Assay results as given in PubChem BioAssay (NCI).
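Exposure lasted 48 hours, with cells grown in 96-well plates and compounds tested at five concentrations. Here, GI50 denotes the concentration required for 50% inhibition of growth. TGI denotes the concentration required for complete inhibition of growth.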

Columns and labels:
Experiment in all cases: NCI-60 cell line screen, 48 h
UACC-62 melanoma = tested on: UACC-62 melanoma
CAKI-1 renal = tested on: CAKI-1 renal
SNB-19 CNS = tested on: SNB-19 CNS
HOP-92 NSCLC = tested on: HOP-92 NSCLC
A549 NSCLC = tested on: A549 NSCLC
A498 renal = tested on: A498 renal
ACHN renal = tested on: ACHN renal
IGROV1 ovarian = tested on: IGROV1 ovarian
SF-268 CNS = tested on: SF-268 CNS
HOP-62 NSCLC = tested on: HOP-62 NSCLC
KM12 colon = tested on: KM12 colon
UACC-257 melanoma = tested on: UACC-257 melanoma
SK-OV-3 ovarian = tested on: SK-OV-3 ovarian
NCI/ADR-RES ovarian = tested on: NCI/ADR-RES ovarian
M14 melanoma = tested on: M14 melanoma
HS 578T breast = tested on: HS 578T breast
EKVX NSCLC = tested on: EKVX NSCLC
MOLT-4 leukemia = tested on: MOLT-4 leukemia
TK-10 renal = tested on: TK-10 renal
SK-MEL-2 melanoma = tested on: SK-MEL-2 melanoma
OVCAR-5 ovarian = tested on: OVCAR-5 ovarian
SNB-75 CNS = tested on: SNB-75 CNS
SF-295 CNS = tested on: SF-295 CNS
T-47D breast = tested on: T-47D breast
NCI-H23 lung = tested on: NCI-H23 lung
CCRF-CEM leukemia = tested on: CCRF-CEM leukemia
NCI-H226 lung = tested on: NCI-H226 lung
COLO 205 colon = tested on: COLO 205 colon
OVCAR-8 ovarian = tested on: OVCAR-8 ovarian
BT-549 breast = tested on: BT-549 breast
HT29 colon = tested on: HT29 colon
MDA-MB-231 breast = tested on: MDA-MB-231 breast
OVCAR-4 ovarian = tested on: OVCAR-4 ovarian
MCF7 breast = tested on: MCF7 breast
HL-60(TB) leukemia = tested on: HL-60(TB) leukemia
LOX IMVI melanoma = tested on: LOX IMVI melanoma
SF-539 CNS = tested on: SF-539 CNS
HCT-116 colon = tested on: HCT-116 colon
786-0 renal = tested on: 786-0 renal
UO-31 renal = tested on: UO-31 renal
HCC-2998 colon = tested on: HCC-2998 colon
HCT-15 colon = tested on: HCT-15 colon
SK-MEL-28 melanoma = tested on: SK-MEL-28 melanoma
SN12C renal = tested on: SN12C renal
SK-MEL-5 melanoma = tested on: SK-MEL-5 melanoma
NCI-H522 lung = tested on: NCI-H522 lung
U251 CNS = tested on: U251 CNS
RPMI-8226 leukemia = tested on: RPMI-8226 leukemia
NCI-H460 lung = tested on: NCI-H460 lung
SW-620 colon = tested on: SW-620 colon
OVCAR-3 ovarian = tested on: OVCAR-3 ovarian
PC-3 prostate = tested on: PC-3 prostate
DU-145 prostate = tested on: DU-145 prostate
SR leukemia = tested on: SR leukemia

COc1ccc2c(=O)c(-c3cc4c(cc3OC)OCO4)coc2c1
TGI (UACC-62 melanoma): > 100 µM | TGI (CAKI-1 renal): > 100 µM | TGI (SNB-19 CNS): > 100 µM | TGI (HOP-92 NSCLC): > 100 µM | TGI (A549 NSCLC): > 100 µM | TGI (A498 renal): > 100 µM | TGI (ACHN renal): > 100 µM | TGI (IGROV1 ovarian): > 100 µM | TGI (SF-268 CNS): > 100 µM | TGI (HOP-62 NSCLC): > 100 µM | TGI (KM12 colon): > 100 µM | TGI (UACC-257 melanoma): > 100 µM | TGI (SK-OV-3 ovarian): > 100 µM | TGI (NCI/ADR-RES ovarian): > 100 µM | TGI (M14 melanoma): > 100 µM | TGI (HS 578T breast): > 100 µM | TGI (EKVX NSCLC): > 100 µM | TGI (MOLT-4 leukemia): > 100 µM | TGI (TK-10 renal): > 100 µM | TGI (SK-MEL-2 melanoma): > 100 µM | TGI (OVCAR-5 ovarian): > 100 µM | TGI (SNB-75 CNS): > 100 µM | TGI (SF-295 CNS): > 100 µM | TGI (T-47D breast): > 100 µM | TGI (NCI-H23 lung): > 100 µM | TGI (CCRF-CEM leukemia): > 100 µM | TGI (NCI-H226 lung): > 100 µM | TGI (COLO 205 colon): > 100 µM | TGI (OVCAR-8 ovarian): > 100 µM | TGI (BT-549 breast): > 100 µM | TGI (HT29 colon): > 100 µM | TGI (MDA-MB-231 breast): > 100 µM | TGI (OVCAR-4 ovarian): > 100 µM | TGI (MCF7 breast): > 100 µM | TGI (HL-60(TB) leukemia): > 100 µM | TGI (LOX IMVI melanoma): > 100 µM | TGI (SF-539 CNS): > 100 µM | TGI (HCT-116 colon): > 100 µM | TGI (786-0 renal): > 100 µM | TGI (UO-31 renal): > 100 µM | TGI (HCC-2998 colon): > 100 µM | TGI (HCT-15 colon): > 100 µM | TGI (SK-MEL-28 melanoma): > 100 µM | TGI (SN12C renal): > 100 µM | TGI (SK-MEL-5 melanoma): > 100 µM | TGI (NCI-H522 lung): > 100 µM | TGI (U251 CNS): > 100 µM | TGI (RPMI-8226 leukemia): > 100 µM | TGI (NCI-H460 lung): > 100 µM | TGI (SW-620 colon): > 100 µM | TGI (OVCAR-3 ovarian): > 100 µM | TGI (PC-3 prostate): > 100 µM | TGI (DU-145 prostate): > 100 µM | TGI (SR leukemia): > 100 µM

N=C1S/C(=C/c2ccc(-c3ccc4c(c3)C(=O)NC4=O)o2)C(=O)N1c1ccc(Br)cc1
GI50 (SNB-19 CNS): > 100 µM | TGI (SNB-19 CNS): > 100 µM | GI50 (HOP-92 NSCLC): 1.81 µM | TGI (HOP-92 NSCLC): 8.56 µM | GI50 (IGROV1 ovarian): 15.9 µM | TGI (IGROV1 ovarian): > 100 µM | GI50 (SF-268 CNS): 6.3 µM | TGI (SF-268 CNS): > 100 µM | GI50 (SK-OV-3 ovarian): 6.19 µM | TGI (SK-OV-3 ovarian): > 100 µM | GI50 (NCI/ADR-RES ovarian): > 100 µM | TGI (NCI/ADR-RES ovarian): > 100 µM | GI50 (HS 578T breast): 7.5 µM | TGI (HS 578T breast): > 100 µM | GI50 (MOLT-4 leukemia): > 100 µM | TGI (MOLT-4 leukemia): > 100 µM | GI50 (TK-10 renal): 3.32 µM | TGI (TK-10 renal): > 100 µM | GI50 (SK-MEL-2 melanoma): 11.7 µM | TGI (SK-MEL-2 melanoma): 41.8 µM | GI50 (OVCAR-5 ovarian): > 100 µM | TGI (OVCAR-5 ovarian): > 100 µM | GI50 (SNB-75 CNS): 2.17 µM | TGI (SNB-75 CNS): 6.76 µM | GI50 (SF-295 CNS): 2.96 µM | TGI (SF-295 CNS): 8.95 µM | GI50 (T-47D breast): 2.92 µM | TGI (T-47D breast): > 100 µM | GI50 (COLO 205 colon): > 100 µM | TGI (COLO 205 colon): > 100 µM | GI50 (BT-549 breast): 4.31 µM | TGI (BT-549 breast): 56 µM | GI50 (MDA-MB-231 breast): 4.21 µM | TGI (MDA-MB-231 breast): > 100 µM | GI50 (MCF7 breast): 3.68 µM | TGI (MCF7 breast): > 100 µM | GI50 (HL-60(TB) leukemia): > 100 µM | TGI (HL-60(TB) leukemia): > 100 µM | GI50 (SF-539 CNS): > 100 µM | TGI (SF-539 CNS): > 100 µM | GI50 (HCT-116 colon): 3.65 µM | TGI (HCT-116 colon): > 100 µM | GI50 (786-0 renal): 3.45 µM | TGI (786-0 renal): > 100 µM | GI50 (UO-31 renal): > 100 µM | TGI (UO-31 renal): > 100 µM | GI50 (HCC-2998 colon): > 100 µM | TGI (HCC-2998 colon): > 100 µM | GI50 (SK-MEL-5 melanoma): 3.48 µM | TGI (SK-MEL-5 melanoma): > 100 µM | GI50 (NCI-H522 lung): 3.63 µM | TGI (NCI-H522 lung): > 100 µM | GI50 (U251 CNS): 2.91 µM | TGI (U251 CNS): 8.23 µM | GI50 (RPMI-8226 leukemia): 4.2 µM | TGI (RPMI-8226 leukemia): > 100 µM
